{
  "source": "patent US20060094003A1",
  "about": "“Acetylcholine-dependent current as a novel ionic target for atrial fibrillation” (priority 2004, published 2006)",
  "key": {"IKr": {"biological_target": "IKr (Homo sapiens, UniProt Q12809)", "sequence (Q12809 whole entry)": "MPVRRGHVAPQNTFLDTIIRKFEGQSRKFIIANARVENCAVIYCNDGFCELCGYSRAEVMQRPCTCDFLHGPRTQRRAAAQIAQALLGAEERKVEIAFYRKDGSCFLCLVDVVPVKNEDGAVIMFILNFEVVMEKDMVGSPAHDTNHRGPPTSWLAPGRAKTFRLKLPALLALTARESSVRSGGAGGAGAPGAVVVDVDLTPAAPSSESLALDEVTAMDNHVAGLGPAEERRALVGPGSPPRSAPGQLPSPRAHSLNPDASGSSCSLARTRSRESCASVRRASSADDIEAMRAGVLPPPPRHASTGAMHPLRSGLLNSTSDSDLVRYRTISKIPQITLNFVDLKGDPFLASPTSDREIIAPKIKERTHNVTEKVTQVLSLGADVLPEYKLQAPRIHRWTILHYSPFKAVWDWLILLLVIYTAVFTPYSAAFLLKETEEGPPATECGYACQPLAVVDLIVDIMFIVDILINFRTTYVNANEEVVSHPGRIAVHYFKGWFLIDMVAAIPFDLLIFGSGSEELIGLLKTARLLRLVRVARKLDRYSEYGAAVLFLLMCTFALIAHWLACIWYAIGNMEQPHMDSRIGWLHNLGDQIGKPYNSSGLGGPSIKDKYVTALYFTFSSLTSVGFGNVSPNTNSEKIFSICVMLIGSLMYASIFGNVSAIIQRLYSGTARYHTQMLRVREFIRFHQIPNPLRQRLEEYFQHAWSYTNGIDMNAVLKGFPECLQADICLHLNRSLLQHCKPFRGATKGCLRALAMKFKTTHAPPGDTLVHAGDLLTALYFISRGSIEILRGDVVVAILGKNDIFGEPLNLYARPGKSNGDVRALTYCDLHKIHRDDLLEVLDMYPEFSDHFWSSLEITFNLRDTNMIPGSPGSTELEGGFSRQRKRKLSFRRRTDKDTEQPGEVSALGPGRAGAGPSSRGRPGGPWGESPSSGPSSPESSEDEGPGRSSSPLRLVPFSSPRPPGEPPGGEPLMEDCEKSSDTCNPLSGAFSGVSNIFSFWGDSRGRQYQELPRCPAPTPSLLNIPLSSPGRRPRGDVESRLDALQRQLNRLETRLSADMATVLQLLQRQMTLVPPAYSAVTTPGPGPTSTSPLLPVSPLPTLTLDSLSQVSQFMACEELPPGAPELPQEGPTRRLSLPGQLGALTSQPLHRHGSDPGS", "conditions": "at concentrations of 8 to 30 nM; cited from earlier work"}, "IKH": {"test_system": "IKH", "test": "Patch-clamp of TQ-sensitive IKH component in LA cardiomyocytes of control and AT dogs", "assay_type": "cell-based, canine", "conditions": "at −110 mV", "method": "Briefly, dogs were subjected to 7-13 days of AT at about 400 beats per minute (bpm). LA preparations were then coronary-perfused and studied intact in vitro or subjected to cardiomyocyte isolation. IKH was studied with patch clamp.\nAdult dogs were divided into control and AT groups. AT dogs were initially anesthetized with diazepam (0.25 mg/kg IV), ketamine (5.0 mg/kg IV), and halothane (1% to 2%) for transvenous insertion of right ventricular (RV) and right atrial (RA) unipolar pacing leads connected to ventricular and atrial pacemakers implanted in the neck. Pacing began 24 hours after pacemaker implantation. AV block was created by radiofrequency catheter ablation and the RV demand-pacemaker was programmed to 80 bpm. The RA was then tachypaced (400 bpm) for 7-13 days.\nOn study days, dogs were anesthetized with pentobarbital (30 mg·kg^−1 I.V.) and artificially ventilated. Hearts and adjacent lung tissue were excised via a left thoracotomy and immersed in oxygenated Tyrode solution. […]\nFor single cardiomyocytes, currents were recorded with whole-cell patch-clamp at 36±0.5° C. […] To control for cell-size variability, currents are expressed as densities (pA/pF). […]"}},
  "data": [
    {"substance": "tertiapin-Q", "values": [
      {"measurement": "effect on IKr (in words)", "setting": "IKr", "result": "no effect"},
      {"measurement": "100 nM TQ-sensitive component of IKH", "setting": "IKH; AT dogs", "result": "−2.8±0.5", "unit": "pA/pF"},
      {"measurement": "100 nM TQ-sensitive component of IKH", "setting": "IKH; control dogs", "result": "−1.7±0.5", "unit": "pA/pF"}
    ]}
  ]
}
